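How tested: cells in 96-well plates exposed to compound for 48 hours at five concentrations. At the GI50, growth is halved. TGI denotes the concentration required for complete inhibition of growth.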
Key:
Test in all cases: NCI anticancer screen, dose series, 48 h
HCT-116 colon = test system: HCT-116 colon
SNB-78 CNS = test system: SNB-78 CNS
HT29 colon = test system: HT29 colon
SK-MEL-2 melanoma = test system: SK-MEL-2 melanoma
DMS 114 small cell lung = test system: DMS 114 small cell lung
M14 melanoma = test system: M14 melanoma
HOP-62 NSCLC = test system: HOP-62 NSCLC
SW-620 colon = test system: SW-620 colon
DLD-1 colon = test system: DLD-1 colon
PC-3 prostate = test system: PC-3 prostate

Row | SMILES | TGI (HCT-116 colon) [µM] | TGI (SNB-78 CNS) [µM] | TGI (HT29 colon) [µM] | TGI (SK-MEL-2 melanoma) [µM] | TGI (DMS 114 small cell lung) [µM] | TGI (M14 melanoma) [µM] | TGI (HOP-62 NSCLC) [µM] | TGI (SW-620 colon) [µM] | TGI (DLD-1 colon) [µM] | TGI (PC-3 prostate) [µM] | GI50 (HCT-116 colon) [µM] | GI50 (SNB-78 CNS) [µM] | GI50 (HT29 colon) [µM] | GI50 (DMS 114 small cell lung) [µM] | GI50 (M14 melanoma) [µM] | GI50 (HOP-62 NSCLC) [µM] | GI50 (SW-620 colon) [µM] | GI50 (DLD-1 colon) [µM]
1 | Cc1cccc(C2SCc3nc4ccccc4n32)c1 (centres undefined) | 56.7 | 99.4 | > 100 | 52.6 | 28.3 | > 100 | 66.6 | > 100 | 75.9 | – | – | – | – | – | – | – | – | –
2 | CCOC(=O)Oc1cc2c(c(OC)c1OC)-c1ccc(OC)c(=O)cc1C(NC(C)=O)CC2 (centres undefined) | 1.85 | > 100 | 13.2 | > 17.1 | 0.0301 | > 70.6 | > 93.1 | > 100 | – | > 100 | – | – | – | – | – | – | – | –
3 | CCOC(=O)C(=O)CC1=Nc2ccccc2SC(c2cccc(C)c2)C1 (centres undefined) | 27.8 | 32.4 | 29.8 | 30.5 | 35 | 35.3 | 49.4 | 43.4 | 34.1 | – | – | – | – | – | – | – | – | –
4 | COC(=O)N/N=C(\C)c1c(O)cc(C)oc1=O | > 100 | > 100 | > 100 | > 100 | – | > 100 | > 100 | > 100 | > 100 | – | – | – | – | – | – | – | – | –
5 | CCOP(=O)(OCC)C1CCCOC1=O (centres undefined) | > 100 | > 100 | > 100 | > 100 | > 100 | > 100 | > 100 | > 100 | > 100 | – | – | – | – | – | – | – | – | –
6 | O=[N+]([O-])C(/C=N/Nc1ccccc1)/C=N/Nc1ccccc1 | > 100 | > 100 | > 100 | > 100 | > 100 | > 100 | > 100 | > 100 | > 100 | – | – | – | – | – | – | – | – | –
7 | COCN1COCN=C1NC#N | > 100 | > 100 | > 100 | > 100 | > 100 | > 100 | > 100 | 66.8 | > 100 | – | – | – | – | – | – | – | – | –
8 | O=C1N2Cc3c4ccc5c3CN3C(=O)N6Cc7c(ccc(c7CN1C6(c1ccccc1)C23c1ccccc1)OCCOCCNCCOCCO4)OCCOCCNCCOCCO5 (centres undefined) | > 100 | > 100 | > 100 | > 100 | > 100 | 57.8 | > 100 | 50.8 | > 100 | – | – | – | – | – | – | – | – | –
9 | O=c1[nH]c2ccccc2nc1/C=C(\O)c1ccccc1O | > 100 | > 100 | > 100 | > 100 | > 100 | > 100 | > 100 | > 100 | > 100 | – | – | – | – | – | – | – | – | –
10 | O=C(CC1OC(O)C(Cl)=C1Cl)c1cccnc1 (centres undefined) | > 54.8 | > 100 | > 59.7 | – | > 56.5 | > 100 | > 77.7 | > 33.9 | – | – | – | – | – | – | – | – | – | –
11 | CN(C)CCNC(=O)c1cccc2cc3c(Cl)cccc3nc12 | 2.97 | 8.26 | 6.94 | 3.5 | 3.69 | – | 2.55 | 6.17 | 4.46 | – | – | – | – | – | – | – | – | –
12 | ClC/C=C/COC1CCCCO1 (centres undefined) | > 100 | > 100 | > 100 | > 100 | > 100 | > 100 | > 100 | > 100 | > 100 | – | – | – | – | – | – | – | – | –
13 | Cc1cccc(C)c1NC(=O)C1=NC(=S)NC(c2ccccc2)C1c1nc2ccccc2s1 (centres undefined) | > 100 | > 100 | > 100 | > 100 | > 100 | > 100 | – | > 100 | > 100 | – | – | – | – | – | – | – | – | –
14 | O=C(/C=C/c1ccccc1F)c1ccc(Cl)c(Cl)c1 | 32.1 | > 100 | > 75.2 | > 100 | 55.5 | > 100 | > 100 | > 66.3 | > 62.9 | – | – | – | – | – | – | – | – | –
15 | O=C1C(c2ccc(Br)cc2)=[N+]([O-])c2ccccc21 | 27.5 | – | 43.8 | 57.6 | 12.2 | 29.8 | 68.8 | 41.5 | 25 | – | – | – | – | – | – | – | – | –
16 | O=[N+]([O-])C=C(c1ccc(Cl)cc1)c1ccc(Cl)cc1 | 31.5 | 44 | 35.5 | 57 | 28.5 | 30.5 | 37.5 | 31 | 32 | – | – | – | – | – | – | – | – | –
17 | CC(=O)[O-].Cn1ccnc1CNCc1nccn1C.[Cu+2].[O-][Cl+3]([O-])([O-])[O-] | > 100 | > 100 | > 100 | – | > 100 | > 100 | > 100 | > 100 | > 100 | – | > 100 | > 100 | > 100 | > 100 | > 100 | > 100 | > 100 | > 100
